Drawing on US9351965B2, “Indazole derivatives useful as ERK inhibitors” (Merck Sharp & Dohme Corp., priority 2010, dated 2016), this text covers IC50 for 28 molecules.

Structures are written as SMILES.

The target of the assay is fully phosphorylated, active Mouse ERK2 protein (Mus musculus (Mouse), UniProt P63085). Briefly: Active ERK2 (aERK) IMAP assay. It counts as biochemical. The settings on record: IMAP fluorescence polarization; 30 μM ATP; 30 minute pre-incubation. How it is done: 14 μl of kinase buffer (10 mM Tris.HCl pH 7.2, 10 mM MgCl2, 0.01% Tween-20, 1 mM DTT) containing 0.4 ng unphosphorylated Mouse ERK2 protein was added to each well of a black 384-well assay plate. […] DMSO concentration during initial incubation is 6.7%. […] DMSO concentration during ERK activation was 4%. After one hour, reactions were terminated by addition of 60 μl IMAP detections beads in binding buffer (Molecular Devices). Binding was allowed to equilibrate for 30 minutes before reading the plate on an LJL Analyst Fluorescence Polarization plate reader.
fully phosphorylated, active Mouse ERK2 protein, sequence (P63085 whole entry): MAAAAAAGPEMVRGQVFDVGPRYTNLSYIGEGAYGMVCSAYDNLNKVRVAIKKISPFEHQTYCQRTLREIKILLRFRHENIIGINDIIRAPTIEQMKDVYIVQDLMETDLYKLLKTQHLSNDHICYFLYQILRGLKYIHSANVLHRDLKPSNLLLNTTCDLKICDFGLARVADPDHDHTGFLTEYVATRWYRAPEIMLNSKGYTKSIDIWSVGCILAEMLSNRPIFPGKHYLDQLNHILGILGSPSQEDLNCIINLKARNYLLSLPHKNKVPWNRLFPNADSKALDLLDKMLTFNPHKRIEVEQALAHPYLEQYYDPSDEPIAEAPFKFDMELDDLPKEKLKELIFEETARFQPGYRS
Active ERK2 (aERK) Assay:
Activated ERK2 activity was also determined in the IMAP assay format using the procedure outlined above. […] Reactions proceeded for 30 minutes before termination by addition of 60 μl IMAP detection beads in binding buffer. Plates were read as above after 30 minute binding equilibration.
In general terms: In fluorescence polarisation assays a small probe gives low polarisation when free and higher when bound to something large.
In general, IC50 refers to the point on the concentration scale where inhibition reaches its midpoint. Higher therefore signals weaker potency in that assay. For `Cc1cc(-c2n[nH]c3ccc(C(=O)NC4CCCC(O)(Cc5ccccc5F)C4)cc23)ccn1` (single isomer, unassigned) [compound 1, N-[3-[(2-fluorophenyl)methyl]-3-hydroxycyclo-hexyl]-3-(2-methyl-4-pyridinyl)-1H-indazole-5-carboxamide], inhibition was half-maximal at 0.589 µM (IC50).
Molecule `Cc1cc(-c2n[nH]c3ccc(C(=O)NC4CCCC(O)(Cc5ccccc5F)C4)cc23)ccn1` (single isomer, unassigned) [compound 2, N-[3-[(2-fluorophenyl)methyl]-3-hydroxycyclo-hexyl]-3-(2-methyl-4-pyridinyl)-1H-indazole-5-carboxamide] showed an IC50 of 0.0208 µM.
Turning to `Cc1cc(-c2n[nH]c3ccc(C(=O)NC4CCCC(O)(Cc5ccccc5F)C4)cc23)ccn1` (single isomer, unassigned) [compound 3, N-[3-[(2-fluorophenyl)methyl]-3-hydroxycyclo-hexyl]-3-(2-methyl-4-pyridinyl)-1H-indazole-5-carboxamide], the half-inhibitory concentration (IC50) worked out at 0.0076 µM.
With `Cc1cc(-c2n[nH]c3ccc(C(=O)NC4CCCC(O)(Cc5ccccc5F)C4)cc23)ccn1` (single isomer, unassigned) [compound 4, N-[3-[(2-fluorophenyl)methyl]-3-hydroxycyclo-hexyl]-3-(2-methyl-4-pyridinyl)-1H-indazole-5-carboxamide] the figure was 0.128 µM.
For the molecule `Cc1cc(-c2n[nH]c3ccc(C(=O)NC4CCCC(O)(Cc5c(F)cccc5F)C4)cc23)ccn1` (single isomer, unassigned) [compound 5, N-[3-[(2,6-difluorophenyl)methyl]-3-hydroxycyclohexyl]-3-(2-methyl-4-pyridinyl)-1H-indazole-5-carboxamide], the concentration for half-maximal inhibition (IC50) was found to be 1 µM.
With `Cc1cc(-c2n[nH]c3ccc(C(=O)NC4CCCC(O)(Cc5c(F)cccc5F)C4)cc23)ccn1` (single isomer, unassigned) [compound 6, N-[3-[(2,6-difluorophenyl)methyl]-3-hydroxycyclohexyl]-3-(2-methyl-4-pyridinyl)-1H-indazole-5-carboxamide] the figure was 1 µM; with `Cc1cc(-c2n[nH]c3ccc(C(=O)NC4CCCC(O)(Cc5c(F)cccc5F)C4)cc23)ccn1` (single isomer, unassigned) [compound 7, N-[3-[(2,6-difluorophenyl)methyl]-3-hydroxycyclohexyl]-3-(2-methyl-4-pyridinyl)-1H-indazole-5-carboxamide], 0.0152 µM.
On to `Cc1cc(-c2n[nH]c3ccc(C(=O)NC4CCCC(O)(Cc5c(F)cccc5F)C4)cc23)ccn1` (single isomer, unassigned) [compound 8, N-[3-[(2,6-difluorophenyl)methyl]-3-hydroxycyclohexyl]-3-(2-methyl-4-pyridinyl)-1H-indazole-5-carboxamide], for which the IC50 was 1 µM.
`O=C(NC1CCCC(O)(Cc2ccccc2F)C1)c1ccc2[nH]nc(-c3ccc4ncsc4c3)c2c1` (single isomer, unassigned) [compound 10, 3-(6-benzothiazolyl)-N-[3-[(2-fluorophenyl)methyl]-3-hydroxycyclohexyl]-1H-indazole-5-carboxamide] showed an IC50 of 1 µM.
`O=C(NC1CCCC(O)(Cc2ccccc2F)C1)c1ccc2[nH]nc(-c3ccc4ncsc4c3)c2c1` (single isomer, unassigned) [compound 11, 3-(6-benzothiazolyl)-N-[3-[(2-fluorophenyl)methyl]-3-hydroxycyclohexyl]-1H-indazole-5-carboxamide] yielded an IC50 of 0.264 µM.
Take `Cc1cc(-c2n[nH]c3ccc(C(=O)NC4CCCC(Oc5ccccc5F)C4)cc23)ccn1` (single isomer, unassigned) [compound 27, N-[3-(2-fluorophenoxy)cyclohexyl]-3-(2-methyl-4-pyridinyl)-1H-indazole-5-carboxamidem]: the IC50 came out at 0.061 µM.
For the molecule `Cc1cc(-c2n[nH]c3ccc(C(=O)NC4CCCC(Oc5ccccc5F)C4)cc23)ccn1` (single isomer, unassigned) [compound 28, N-[3-(2-fluorophenoxy)cyclohexyl]-3-(2-methyl-4-pyridinyl)-1H-indazole-5-carboxamide], 0.113 µM corresponded to half-maximal inhibition (IC50).
The molecule `Cc1cc(-c2n[nH]c3ccc(C(=O)NC4CCCC(Oc5ccccc5Cl)C4)cc23)ccn1` (single isomer, unassigned) [compound 29, N-[3-(2-chlorophenoxy)cyclohexyl]-3-(2-methyl-4-pyridinyl)-1H-indazole-5-carboxamide] had an IC50 of 1 µM.
For the molecule `Cc1cc(-c2n[nH]c3ccc(C(=O)NC4CCCC(Oc5ccccc5Cl)C4)cc23)ccn1` (single isomer, unassigned) [compound 30, N-[3-(2-chlorophenoxy)cyclohexyl]-3-(2-methyl-4-pyridinyl)-1H-indazole-5-carboxamide], the IC50 was found to be 0.0386 µM.
As for `Cc1cc(-c2n[nH]c3ccc(C(=O)NC4CCCC(Oc5ccccc5Cl)C4)cc23)ccn1` (single isomer, unassigned) [compound 34, N-[3-(2-chlorophenoxy)cyclohexyl]-3-(2-methyl-4-pyridinyl)-1H-indazole-5-carboxamide], the IC50 is 0.198 µM.
For the molecule `Cc1cc(-c2n[nH]c3ccc(C(=O)NC4CCCC(Oc5ccccc5Cl)C4)cc23)ccn1` (single isomer, unassigned) [compound 35, N-[3-(2-chlorophenoxy)cyclohexyl]-3-(2-methyl-4-pyridinyl)-1H-indazole-5-carboxamide], the IC50 is 0.192 µM.
With `Cc1cc(-c2n[nH]c3ccc(C(=O)NC4CCCC(Oc5ccc(F)cc5F)C4)cc23)ccn1` (single isomer, unassigned) [compound 37, N-[3-(2,4-difluorophenoxy)cyclohexyl]-3-(2-methyl-4-pyridinyl)-1H-indazole-5-carboxamide], the half-inhibitory concentration (IC50) stood at 0.128 µM.
In the case of `Cc1cc(-c2n[nH]c3ccc(C(=O)NC4CCCC(Oc5ccc(F)cc5F)C4)cc23)ccn1` (single isomer, unassigned) [compound 38, N-[3-(2,4-difluorophenoxy)cyclohexyl]-3-(2-methyl-4-pyridinyl)-1H-indazole-5-carboxamide], the half-maximal inhibitory concentration (IC50) was found to be 0.476 µM.
Regarding `Cc1cc(-c2n[nH]c3ccc(C(=O)NC4CCCC(CO)(Oc5cccc(F)c5)C4)cc23)ccn1` (single isomer, unassigned) [compound 43, N-[3-(3-fluorophenoxy)-3-(hydroxymethyl)cyclohexyl]-3-(2-methyl-4-pyridinyl)-1H-indazole-5-carboxamide], the IC50 amounted to 0.0134 µM.
With `Cc1cc(-c2n[nH]c3ccc(C(=O)NC4CCCC(CO)(Oc5cccc(F)c5)C4)cc23)ccn1` (single isomer, unassigned) [compound 44, N-[3-(3-fluorophenoxy)-3-(hydroxymethyl)cyclohexyl]-3-(2-methyl-4-pyridinyl)-1H-indazole-5-carboxamide] the figure was 0.214 µM; with `Cc1cc(-c2n[nH]c3ccc(C(=O)NC4CCCC(CO)(Oc5cccc(F)c5)C4)cc23)ccn1` (single isomer, unassigned) [compound 45, N-[3-(3-fluorophenoxy)-3-(hydroxymethyl)cyclohexyl]-3-(2-methyl-4-pyridinyl)-1H-indazole-5-carboxamide], 0.187 µM; with `Cc1cc(-c2n[nH]c3ccc(C(=O)N[C@@H]4CCCC(F)(Cc5ccccc5F)C4)cc23)ccn1` (single isomer, unassigned; isomer 1) [compound 55], 1 µM.
With `Cc1nc2ccc(-c3n[nH]c4ccc(C(=O)N[C@@H]5CCC[C@](O)(Cc6ccccc6F)C5)cc34)cn2n1` [compound 12, N-[3(S)-[(2-fluorophenyl)methyl]-3-hydroxy-1(R)-cyclohexyl]-3-(2-methyl[1,2,4]triazolo[1,5-a]pyridin-6-yl)-1H-indazole-5-carboxamide], the concentration for half-maximal inhibition (IC50) was determined as 0.0144 µM.
Under `Cc1nc2ccc(-c3n[nH]c4ccc(C(=O)N[C@@H]5CCC[C@](O)(Cc6ccccc6F)C5)cc34)cc2s1` [compound 13, N-[3(S)-[(2-fluorophenyl)methyl]-3-hydroxy-1(R)-cyclohexyl]-3-(2-methyl-6-benzothiazolyl)-1H-indazole-5-carboxamide] stands 0.0199 µM; under `Cc1nc2ccc(-c3n[nH]c4ccc(C(=O)N[C@@H]5CCC[C@](O)(Cc6c(F)cccc6F)C5)cc34)cc2s1` [compound 14, N-[3(S)-[(2,6-difluorophenyl)methyl]-3-hydroxy-1(R)-cyclohexyl]-3-(2-methyl-6-benzothiazolyl)-1H-indazole-5-carboxamide], 0.0154 µM.
Molecule `O=C(N[C@@H]1CCC[C@](O)(Cc2ccccc2F)C1)c1ccc2[nH]nc(-c3ccc4nccn4c3)c2c1` [compound 15, N-[3(S)-[(2-fluorophenyl)methyl]-3-hydroxy-1(R)-cyclohexyl]-3-imidazo[1,2-a]pyridin-6-yl-1H-indazole-5-carboxamide] had a 50% inhibitory concentration (IC50) of 0.0086 µM.
The molecule `CC(C)Oc1cc(-c2n[nH]c3ccc(C(=O)N[C@@H]4CCC[C@](O)(Cc5ccccc5F)C4)cc23)ccn1` [compound 16, N-[3(S)-[(2-fluorophenyl)methyl]-3-hydroxy-1(R)-cyclohexyl]-3-[2-(1-methylethoxy)-4-pyridinyl]-1H-indazole-5-carboxamide] registered an IC50 of 0.301 µM.
With `CC(C)Oc1ccc(-c2n[nH]c3ccc(C(=O)N[C@@H]4CCC[C@](O)(Cc5ccccc5F)C4)cc23)cn1` [compound 17, N-[3-(S)-[(2-fluorophenyl)methyl]-3-hydroxy-1(R)-cyclohexyl]-3-[6-(1-methylethoxy)-3-pyridinyl]-1H-indazole-5-carboxamide], half-maximal inhibition (IC50) required 0.0449 µM.
